Reference: patent US20060183794A1, “Drug composition containing nf-kb inhibitor” (priority 2002, published 2006)

Experiments:
[1] = molecular target: T1, NF-κB (Homo sapiens, UniProt P19838+Q04206); assay: Gel shift assay of NF-κB activation by antitumor agents in KMH2 cells; format: cell-based; set-up: endogenous in cells; host or cells: HL cell lines KMH2, L428, L540, HDLM2 (A30: KMH2 treated with antitumor agents); conditions: camptothecin or daunomycin with concurrent DHMEQ
Target sequence in this assay (P19838 1-433 limits assumed): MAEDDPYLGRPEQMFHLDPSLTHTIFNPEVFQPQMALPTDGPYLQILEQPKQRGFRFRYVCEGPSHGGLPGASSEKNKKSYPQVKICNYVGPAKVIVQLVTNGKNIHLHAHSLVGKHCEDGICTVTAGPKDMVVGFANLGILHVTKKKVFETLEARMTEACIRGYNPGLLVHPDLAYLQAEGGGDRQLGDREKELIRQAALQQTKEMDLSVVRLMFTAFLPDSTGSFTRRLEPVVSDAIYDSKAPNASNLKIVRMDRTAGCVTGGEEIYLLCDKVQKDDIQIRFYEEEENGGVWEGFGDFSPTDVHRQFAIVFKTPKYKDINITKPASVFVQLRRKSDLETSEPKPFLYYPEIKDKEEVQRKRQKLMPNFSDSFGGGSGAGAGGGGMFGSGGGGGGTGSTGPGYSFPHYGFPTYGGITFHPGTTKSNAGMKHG
Target sequence in this assay (Q04206 whole entry): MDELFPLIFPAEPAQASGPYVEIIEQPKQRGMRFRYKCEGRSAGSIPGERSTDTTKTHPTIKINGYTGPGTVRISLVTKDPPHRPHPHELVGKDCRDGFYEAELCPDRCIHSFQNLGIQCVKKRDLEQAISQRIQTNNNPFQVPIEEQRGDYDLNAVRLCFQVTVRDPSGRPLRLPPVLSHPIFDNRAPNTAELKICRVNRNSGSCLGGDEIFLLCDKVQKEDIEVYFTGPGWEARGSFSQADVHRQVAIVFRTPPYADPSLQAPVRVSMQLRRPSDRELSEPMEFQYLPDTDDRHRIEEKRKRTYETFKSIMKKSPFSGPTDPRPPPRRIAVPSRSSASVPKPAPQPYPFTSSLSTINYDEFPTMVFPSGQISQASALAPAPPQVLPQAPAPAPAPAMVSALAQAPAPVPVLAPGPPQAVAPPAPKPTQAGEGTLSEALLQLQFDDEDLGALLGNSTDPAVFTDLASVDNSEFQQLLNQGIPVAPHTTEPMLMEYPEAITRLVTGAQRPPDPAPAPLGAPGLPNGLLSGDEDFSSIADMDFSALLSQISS

[2] = molecular target: T1, NF-κB; assay: Gel shift assay of constitutive NF-κB activation in multiple myeloma cell lines; format: cell-based; set-up: endogenous in cells; host or cells: MM cell lines KMM1, RPMI8226, U266
Protocol: The ATL cell lines (MT-1 and TL-Om1) and the control cell lines (K562 and Jurkat+TNF), 2×10^6 cells each, were treated with 10 μg/ml DHM2EQ for 12 hours, and nuclear extract was prepared from each cell line. Likewise, nuclear extract was prepared also from the cell lines not treated with DHM2EQ. MT-1 and TL-Om1 are the cell lines transformed with HTLV-1; NF-κB is activated in these cell lines. K562 (myelocytic leukemia cell line) is a cell line in which constitutive NF-κB is not confirmed (a negative control), and Jurkat+TNF is a […] consensus oligomers (Promega) were end-labeled with [γ-^32P]-ATP and polynucleotide kinase (PNK) to prepare ^32P-labeled NF-κB probes.
The equivalent of 2 μg of nuclear extract protein was mixed with NF-κB probes (the equivalent of 10,000 cpm) in a volume of 20 μl and reacted at room temperature for 30 min. The solution after the reaction was subjected to 7.5% polyacrylamide gel electrophoresis. The gel was then dried and exposed to an X-ray film.
The MM cell lines, KMM1, RPMI8226, and U266 (2×10^6 cells each) were treated with 10 μg/ml of DHMEQ for 12 hours, and nuclear extract was prepared from each cell line. The gel shift assay was performed in the same method as in Example 4 and the inhibitory effect of DHMEQ on NF-κB was examined. […] The TNF-treated Jurkat (Jurkat+TNF) was used as the positive control.
Next, the MM cell lines, KMM1, RPMI8226, and U266 were treated with 10 μg/ml DHMEQ for 12 hours, and nuclear extract was prepared from each cell line. The gel shift assay was performed in the same method as in Example 4 (1) and the time-course inhibitory effect on NF-κB was examined.
Target sequence in this assay (Q04206 whole entry): as above
Target sequence in this assay (P19838 1-433 limits assumed): as the sequence (P19838 1-433 limits assumed) above

[3] = tested on: human breast cancer cell line MCF-7 transplanted into SCID mice; assay: MCF-7 subcutaneous tumor model in SCID mice; format: in vivo; conditions: DHMEQ 4 mg/kg i.p. three times per week
Protocol: Subcutaneous tumor model SCID mice (CLEA Japan) were given DHMEQ (4 mg/kg) three days a week and the volume of the tumors were periodically measured for examination of the suppressive effect of DHMEQ on tumor growth. The body weights of the mice were also measured simultaneously.
MCF-7 (1×10^6 cells) suspended in 100 μl of PBS was inoculated subcutaneously into the back of six-week-old SCID mice. DHMEQ was suspended in 0.5% methylcellulose (Nacalai Tesque) solution at 4 mg/kg in 200 μl. The drug-containing solution or 0.5% methylcellulose solution (200 μl) was intraperitoneally administered three times per week (n=8/group), starting on the next day after inoculation. The major axis and minor axis of the tumors were measured with calipers every seven days. The tumor volume was calculated as follows: (major axis)×(minor axis)^2/2. The body weights were also measured simultaneously.

[4] = tested on: ICR mice; assay: Acute toxicity test in ICR mice; format: in vivo; conditions: ICR mice i.p.
Protocol: (§1) An acute toxicity test of DHMEQ was performed as follows: DHMEQ was dissolved in one drop of 10% DMSO saline+Tween, administered to the abdominal cavity of ICR mice, and the mortality/survival and status of the mice after 24 hours were investigated.

[5] = Acute toxicity test in ICR mice; format: in vivo; conditions: mouse, in vivo, intraperitoneal; ICR mice, abdominal cavity, 24 hours; read-out: acute toxicity LD 50
Protocol: as §1

[6] = tested on: human pancreatic cancer cell line Colo357; assay: Annexin-V/PI flow cytometry apoptosis assay, Colo357 with irradiation; format: cell-based
Protocol: Next, the apoptosis-enhancing effect of DHMEQ on irradiated tumor cells was investigated. The human pancreatic cancer cell line Colo357 given 10 μg/ml DHMEQ for six hours, the human pancreatic cancer cell line Colo357 irradiated with 20 Gy radiation and then incubated for 6 hours, and the human pancreatic cancer cell line Colo357 given 10 μg/ml DHMEQ for six hours immediately after irradiation with 20 Gy radiation were subjected to Annexin-V/propidium iodide (PI) double staining. The apoptotic cells (lower right) were measured by flow cytometry and the ratio was calculated. […] On the other hand, in the cells to which DHMEQ was administered after irradiation with 20 Gy radiation, the apoptosis-inducing ability is enhanced three-fold, as compared with the cells only irradiated with 20 Gy radiation

Compound: O=C(NC1=CC(=O)C2OC2C1O)c1ccccc1O (centres unmarked) [DHMEQ, 5,6-epoxy-4-hydroxy-3-salicyloylamino-2-cyclohexenone]
- NF-κB induction by antitumor agent [1]: strongly suppressed
- signals by NF-κB (gel shift) ([2]; KMM1, RPMI8226, U266, 10 μg/ml DHMEQ, 12 hours): lost
- persistence of inhibition of NF-κB activation ([2]; MM cell lines, 10 μg/ml): sustained even after a lapse of 16 hours
- activation of NF-κB, time course (gel shift) ([2]; MM cell lines, 10 μg/ml, 1 hour after treatment): almost inhibited
- mortality or weight loss of the mice [3]: No mortality or weight loss
- tumor growth (tumor volume) ([3]; MCF-7 s.c.): significant suppressive effect
- mortality/survival after 24 hours ([4]; 5 mg/mouse (about 250 mg/kg)): dead on the day of administration
- mortality/survival after 24 hours ([4]; 0.156, 0.313, 0.625, 1.25, or 2.5 mg/mouse): survived
- LD50 at 24 h [5]: 188 mg/kg
- apoptosis-inducing ability versus irradiation only ([6]; 10 μg/ml six hours after 20 Gy radiation): three-fold
- apoptosis induction by DHMEQ alone ([6]; 10 μg/ml, six hours): apoptosis was not induced
